Reference: ChEMBL document CHEMBL1159202, “A furanoid labdane diterpene from Potamogeton nodosus” (1998)

What was measured:
Type in all cases: functional
Shigella boydii = experiment: Antimicrobial activity against Shigella boydii by disk diffusion method
Shigella dysenteriae = experiment: Antimicrobial activity against Shigella shigae by disk diffusion method
Staphylococcus aureus = experiment: Antimicrobial activity against Staphylococcus aureus by disk diffusion method
Bacillus subtilis = experiment: Antimicrobial activity against Bacillus subtilis by disk diffusion method
Shigella sonnei = experiment: Antimicrobial activity against Shigella sonnei by disk diffusion method
Enterococcus faecalis = experiment: Antimicrobial activity against sStreptococcus faecalis by disk diffusion method
Bacillus cereus = experiment: Antimicrobial activity against Bacillus cereus by disk diffusion method

C=C1CC[C@H]2[C@@]3(C)CCC[C@]2(C(=O)OC3)[C@H]1CC(=O)c1ccoc1
inhibition zone (IZ) (Shigella boydii): 8 mm | inhibition zone (IZ) (Shigella dysenteriae): 12 mm | inhibition zone (IZ) (Staphylococcus aureus): 14 mm | inhibition zone (IZ) (Bacillus subtilis): 16 mm | inhibition zone (IZ) (Shigella sonnei): 10 mm | inhibition zone (IZ) (Enterococcus faecalis): 12 mm | inhibition zone (IZ) (Bacillus cereus): 13 mm

C[C@H]1c2cccc(O)c2C(=O)C2=C(O)[C@]3(O)C(=O)C(C(N)=O)=C(O)[C@@H](N(C)C)[C@@H]3[C@@H](O)[C@@H]21.O [DOXYCYCLINE]
inhibition zone (IZ) (Shigella boydii): 38 mm | inhibition zone (IZ) (Shigella dysenteriae): 37 mm | inhibition zone (IZ) (Staphylococcus aureus): 35 mm | inhibition zone (IZ) (Bacillus subtilis): 34 mm | inhibition zone (IZ) (Shigella sonnei): 30 mm | inhibition zone (IZ) (Enterococcus faecalis): 35 mm | inhibition zone (IZ) (Bacillus cereus): 31 mm
